Measurements reported in ChEMBL document CHEMBL3588800, “Novel Bioactive Hybrid Compound Dual Targeting Estrogen Receptor and Histone Deacetylase for the Treatment of Breast Cancer” (J Med Chem, 2015).

Experiments:
Estrogen receptor [1] = molecular target: T1, Estrogen receptor (Homo sapiens, UniProt P03372); assay: Antagonist activity at ER-alpha (unknown origin) transfected in HEK293T cells assessed as inhibition of transcriptional activity after 24 hrs by luciferase reporter gene assay; type: cell-based, HEK-293T
T1 sequence (P03372 whole entry): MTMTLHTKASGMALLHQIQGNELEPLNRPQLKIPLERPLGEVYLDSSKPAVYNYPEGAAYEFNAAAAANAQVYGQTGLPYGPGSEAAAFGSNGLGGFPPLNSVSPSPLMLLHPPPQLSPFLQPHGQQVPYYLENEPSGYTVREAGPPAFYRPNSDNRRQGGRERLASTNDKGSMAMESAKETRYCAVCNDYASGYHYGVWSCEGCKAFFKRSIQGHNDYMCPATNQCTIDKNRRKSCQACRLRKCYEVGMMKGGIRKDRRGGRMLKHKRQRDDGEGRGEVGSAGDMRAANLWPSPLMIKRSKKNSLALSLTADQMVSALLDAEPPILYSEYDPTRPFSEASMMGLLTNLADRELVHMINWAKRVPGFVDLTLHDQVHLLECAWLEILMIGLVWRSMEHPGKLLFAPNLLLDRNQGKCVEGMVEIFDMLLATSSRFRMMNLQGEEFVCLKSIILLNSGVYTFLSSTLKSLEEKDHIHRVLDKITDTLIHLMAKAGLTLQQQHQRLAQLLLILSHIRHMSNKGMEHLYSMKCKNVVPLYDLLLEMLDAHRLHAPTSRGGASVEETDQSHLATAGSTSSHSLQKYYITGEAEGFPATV

Estrogen receptor beta [2] = molecular target: T2, Estrogen receptor beta (Homo sapiens, UniProt Q92731); assay: Binding affinity to human ER-beta ligand binding domain after 2 hrs by competitive fluorometric binding assay
Vero = assay: cells; type: ADME, cell-based; conditions: Chlorocebus sabaeus, 72 h
MCF7 = assay: cells; type: functional, cell-based; conditions: Homo sapiens, MCF7, 72 h
Estrogen receptor [3] = molecular target: T1, Estrogen receptor; assay: Binding affinity to human ER-alpha ligand binding domain after 2 hrs by competitive fluorometric binding assay
Estrogen receptor beta [4] = molecular target: T2, Estrogen receptor beta; assay: Antagonist activity at ER-beta (unknown origin) transfected in HEK293T cells assessed as inhibition of transcriptional activity after 24 hrs by luciferase reporter gene assay relative to 17-beta estradiol; type: cell-based; conditions: HEK-293T
Estrogen receptor beta [5] = molecular target: T2, Estrogen receptor beta; assay: Antagonist activity at ER-beta (unknown origin) transfected in HEK293T cells assessed as inhibition of transcriptional activity after 24 hrs by luciferase reporter gene assay; type: cell-based, HEK-293T
DU-145 = assay: cells; type: functional, cell-based; conditions: Homo sapiens, DU-145, 72 h
Estrogen receptor beta [6] = molecular target: T2, Estrogen receptor beta; assay: Agonist activity at ER-beta (unknown origin) transfected in HEK293T cells assessed as stimulation of transcriptional activity after 24 hrs by luciferase reporter gene assay relative to 17-beta estradiol; type: cell-based; conditions: HEK-293T
[7] = molecular target: T3, Estrogen receptor (Homo sapiens) (UniProt P03372); assay: Agonist activity at ER-alpha (unknown origin) transfected in HEK293T cells assessed as stimulation of transcriptional activity after 24 hrs by luciferase reporter gene assay relative to 17-beta estradiol; type: cell-based; conditions: HEK-293T
T3 sequence (whole entry): T1 sequence (P03372 whole entry)

[8] = molecular target: T3, Estrogen receptor (Homo sapiens); assay: Antagonist activity at ER-alpha (unknown origin) transfected in HEK293T cells assessed as inhibition of transcriptional activity after 24 hrs by luciferase reporter gene assay relative to 17-beta estradiol; type: cell-based; conditions: HEK-293T
Estrogen receptor [9] = molecular target: T1, Estrogen receptor; assay: Agonist activity at ER-alpha (unknown origin) transfected in HEK293T cells assessed as stimulation of transcriptional activity after 24 hrs by luciferase reporter gene assay; type: cell-based, HEK-293T
Estrogen receptor beta [10] = molecular target: T2, Estrogen receptor beta; assay: Agonist activity at ER-beta (unknown origin) transfected in HEK293T cells assessed as stimulation of transcriptional activity after 24 hrs by luciferase reporter gene assay; type: cell-based, HEK-293T
[11] = molecular target: T4, Protein deacetylase HDAC6 (Homo sapiens, UniProt Q9UBN7); assay: Inhibition of human recombinant HDAC6 after 15 mins by fluorogenic assay; conditions: read-out: IC50
T4 sequence (Q9UBN7 whole entry): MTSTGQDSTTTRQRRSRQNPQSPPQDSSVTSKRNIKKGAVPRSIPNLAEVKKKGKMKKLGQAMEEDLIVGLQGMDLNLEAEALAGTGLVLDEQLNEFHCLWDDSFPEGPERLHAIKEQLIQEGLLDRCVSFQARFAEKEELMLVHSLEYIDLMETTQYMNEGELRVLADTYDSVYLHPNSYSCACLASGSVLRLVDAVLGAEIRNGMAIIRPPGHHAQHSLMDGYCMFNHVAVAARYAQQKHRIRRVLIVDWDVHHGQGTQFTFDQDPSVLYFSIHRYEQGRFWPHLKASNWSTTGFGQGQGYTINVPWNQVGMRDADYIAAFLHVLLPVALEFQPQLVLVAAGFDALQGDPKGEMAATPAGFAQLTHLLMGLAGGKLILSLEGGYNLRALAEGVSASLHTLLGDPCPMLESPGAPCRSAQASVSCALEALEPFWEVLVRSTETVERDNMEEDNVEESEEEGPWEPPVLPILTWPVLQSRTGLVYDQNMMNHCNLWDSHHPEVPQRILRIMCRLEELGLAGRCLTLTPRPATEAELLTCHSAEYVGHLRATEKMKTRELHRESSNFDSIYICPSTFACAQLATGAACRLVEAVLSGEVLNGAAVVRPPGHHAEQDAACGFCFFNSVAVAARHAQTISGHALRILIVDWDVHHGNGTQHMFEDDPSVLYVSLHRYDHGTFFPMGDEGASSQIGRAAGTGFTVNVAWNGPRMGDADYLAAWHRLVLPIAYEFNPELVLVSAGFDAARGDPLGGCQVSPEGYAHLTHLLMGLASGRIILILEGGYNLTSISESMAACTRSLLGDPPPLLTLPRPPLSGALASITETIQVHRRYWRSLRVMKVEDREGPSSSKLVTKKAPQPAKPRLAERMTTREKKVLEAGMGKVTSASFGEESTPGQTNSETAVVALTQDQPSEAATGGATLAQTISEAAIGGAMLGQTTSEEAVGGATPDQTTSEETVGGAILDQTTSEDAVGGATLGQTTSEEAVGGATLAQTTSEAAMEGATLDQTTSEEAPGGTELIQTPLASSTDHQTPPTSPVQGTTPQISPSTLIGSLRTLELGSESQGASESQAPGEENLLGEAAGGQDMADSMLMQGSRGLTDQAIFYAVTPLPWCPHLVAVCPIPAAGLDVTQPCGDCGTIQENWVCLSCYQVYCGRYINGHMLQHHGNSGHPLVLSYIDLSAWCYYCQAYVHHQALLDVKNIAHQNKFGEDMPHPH

Histone deacetylase 1 = Histone deacetylase 1 (Homo sapiens, UniProt Q13547); assay: Inhibition of human recombinant HDAC1 after 15 mins by fluorogenic assay; conditions: read-out: IC50
[12] = Therapeutic index, ratio of IC50 for african green monkey Vero cells to IC50 for human MCF7 cells

T2 sequence (Q92731 whole entry, the tested form may be a part): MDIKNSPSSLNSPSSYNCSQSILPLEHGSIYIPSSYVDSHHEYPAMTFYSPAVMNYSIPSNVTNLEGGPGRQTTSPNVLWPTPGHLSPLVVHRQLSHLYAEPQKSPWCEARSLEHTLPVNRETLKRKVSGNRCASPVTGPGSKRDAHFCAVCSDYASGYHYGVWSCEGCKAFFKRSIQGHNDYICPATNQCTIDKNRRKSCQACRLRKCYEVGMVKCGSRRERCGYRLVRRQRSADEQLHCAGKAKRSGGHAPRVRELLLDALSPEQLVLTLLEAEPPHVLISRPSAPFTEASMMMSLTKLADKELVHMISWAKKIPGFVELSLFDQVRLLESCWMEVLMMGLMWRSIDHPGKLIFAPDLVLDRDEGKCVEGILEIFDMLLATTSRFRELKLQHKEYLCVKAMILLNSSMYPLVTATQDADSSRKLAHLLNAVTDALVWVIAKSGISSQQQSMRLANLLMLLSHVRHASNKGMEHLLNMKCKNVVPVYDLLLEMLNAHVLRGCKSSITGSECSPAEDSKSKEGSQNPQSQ
Chain of Histone deacetylase 1 (Q13547 whole entry): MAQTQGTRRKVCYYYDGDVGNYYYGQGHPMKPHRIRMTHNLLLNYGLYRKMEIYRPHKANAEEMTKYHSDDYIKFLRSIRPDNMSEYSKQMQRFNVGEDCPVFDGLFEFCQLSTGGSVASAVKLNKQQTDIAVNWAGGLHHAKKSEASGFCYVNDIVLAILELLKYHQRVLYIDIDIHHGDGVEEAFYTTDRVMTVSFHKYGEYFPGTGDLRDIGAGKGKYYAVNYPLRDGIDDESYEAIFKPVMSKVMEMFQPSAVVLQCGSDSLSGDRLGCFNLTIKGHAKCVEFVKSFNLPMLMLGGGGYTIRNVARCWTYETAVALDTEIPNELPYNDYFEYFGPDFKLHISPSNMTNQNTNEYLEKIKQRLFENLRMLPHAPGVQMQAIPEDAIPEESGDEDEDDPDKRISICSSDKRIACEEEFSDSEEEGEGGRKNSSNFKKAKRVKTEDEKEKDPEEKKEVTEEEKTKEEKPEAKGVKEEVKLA

Row | Structure (SMILES) | IC50 (Estrogen receptor [1]) [µM] | Ki (Estrogen receptor beta [2]) [µM] | IC50 (Vero) [µM] | IC50 (MCF7) [µM] | Ki (Estrogen receptor [3]) [µM] | Efficacy (Estrogen receptor beta [4]) [%] | IC50 (Estrogen receptor beta [5]) [µM] | IC50 (DU-145) [µM] | Efficacy (Estrogen receptor beta [6]) [%] | Efficacy [7] [%] | Efficacy [8] [%] | EC50 (Estrogen receptor [9]) [µM] | EC50 (Estrogen receptor beta [10]) [µM] | IC50 [11] [µM] | IC50 (Histone deacetylase 1) [µM] | selectivity ratio [12]
1 | O=C(O)CCCCCCC(=O)Nc1ccc(C2=C(c3ccc(O)cc3)C3CC(S(=O)(=O)Oc4ccc(Br)cc4)C2O3)cc1 (racemic) | 1.7 | 0.0605 | > 100 | > 100 | 0.126 | 77 | 0.25 | > 100 | -3 | -36 | 75 |  |  |  |  | 
2 | COC(=O)CCCCCCC(=O)Nc1cccc(OS(=O)(=O)C2CC3OC2C(c2ccc(O)cc2)=C3c2ccc(O)cc2)c1 (centres undefined) |  |  | > 100 | 19.1 |  | 91 |  | 19.3 | 3 | 16 | 111 | 0.001 |  |  |  | 
3 | COc1ccccc1OS(=O)(=O)C1CC2OC1C(c1ccc(NC(=O)CCCCCCC(=O)O)cc1)=C2c1ccc(O)cc1 (racemic) |  | 0.0952 | > 100 | > 100 | 0.159 | 78 | 0.29 | > 100 | 65 | 84 | 104 | 0.016 | 1.8 |  |  | 
4 | O=C(O)CCCCCCC(=O)Nc1ccc(OS(=O)(=O)C2CC3OC2C(c2ccc(O)cc2)=C3c2ccc(O)cc2)cc1 (centres undefined) | 0.05 |  | > 100 | 19.1 |  | 89 | 0.16 | 34.8 | -5 | -10 | 25 |  |  | 8.34 | 0.107 | 
5 | COc1cccc(OS(=O)(=O)C2CC3OC2C(c2ccc(NC(=O)CCCCCCC(=O)O)cc2)=C3c2ccc(O)cc2)c1 (racemic) |  | 0.0815 | > 100 | 17.9 | 4.43 | 100 |  | 53.8 | 100 | 67 | 87 | 1.16 | 1.1 |  |  | > 5.59
6 | Cc1cccc(OS(=O)(=O)C2CC3OC2C(c2ccc(NC(=O)CCCCCCC(=O)NO)cc2)=C3c2ccc(O)cc2)c1 (racemic) |  | > 5 | > 100 | 22.9 | 4.43 | 48 | 0.613 | 32.2 | 29 | 38 | 115 |  | 0.054 |  |  | 
7 | O=C(O)CCCCCCC(=O)Nc1ccc(C2=C(c3ccc(O)cc3)C3CC(S(=O)(=O)Oc4ccc(F)cc4)C2O3)cc1 (racemic) |  |  | > 100 | 24.8 |  | 85 | 0.28 | > 100 | -13 | 38 | 99 | 18 |  |  |  | 
